Results published in PMC10582335 (Frontiers in Pharmacology, 2023).
“And” between values parts separate entries of the source, which are not always exact repeats. Identical values can stand only once. Like-named read-outs stand apart in the source and are kept apart here.

Key:
[1] = cited from earlier work
[2] = Pharmacokinetics of apixaban in rats, alone and after multiple doses of almonertinib; format: in vivo, Sprague-Dawley (SD) rats; conditions: for increase of AUC of apixaban: multiple doses of almonertinib; for MRT inf / MRT last / AUC(0-inf) / AUC(0-t) / Cmax / Tmax / CL/F / Vd/F / half-life: male, Sprague-Dawley, rat, po; for MRT inf: read-out: MRT0-∞; for MRT last: read-out: MRT0-t; for CL/F: read-out: CLz/F (converted); for Vd/F: read-out: Vz/F; for half-life: read-out: t1/2z (converted)
Method: Chromatographic separation was performed using an XSelect HSS T3 column (2.1 mm × 100 mm, 2.5 µm, Waters, Milford, MA, United States) at 40°C by gradient elution. The mobile phase consisted of water (A) and acetonitrile (0.1% formic acid, B). […] The flow rate was 0.35 mL min^−1, and the injection volume was 6 µL. The positive ion mode with multiple reaction detection was used. […] The mass spectrometer conditions, including delustering potential (DP) and collision energy (CE) of the compounds, are shown in Table 1. […] Protein precipitation was used to process the plasma samples. 5 μL of mixed IS working solution, 50 µL of the plasma samples, and 150 µL of acetonitrile were vortex-mixed for 1.0 min. […] The supernatant was transferred to a 96-well plate for sample analysis. […] (Beijing, China). […] The study was approved and supervised by the Animal Ethics Committee of Hebei General Hospital (Shijiazhuang, China) (No. 2023024). Adaptive feeding (sufficient food and water) was performed for 1 week before the experiment. […] All rats were fasted for 12 h before starting the experiments while still given water. Sixty healthy rats were randomly divided into ten groups (n = 6). […] Blood samples were centrifuged at 3,500 g for 10 min, and then the supernatant was gathered and stored in a −80°C refrigerator. After, rat intestine, kidney and liver tissues were harvested for molecular analysis on the ninth or fifth day after treatment with the corresponding drugs for each group. The tissues were placed immediately at −80°C. DAS 2.1.1 Software (Mathematical Pharmacology Professional Committee of China, Shanghai, China) was applied to calculate pharmacokinetic parameters using non-compartmental analysis. SPSS 25.0 statistical software (SPSS Inc., Chicago, IL, United States) was applied to statistically analyze the main pharmacokinetic parameters, including AUC, Cmax, Tmax, t1/2, CLz/F, Vz/F, and MRT.

[3] = Stability in rat plasma under storage and processing conditions (QC samples, UPLC-MS/MS); conditions: n = 6
Method: The stability of plasma samples was validated by the QC samples at three concentration levels in six replicates under various storage and processing conditions: autosampler for 24 h after preprocessing, room temperature for 8 h, −80°C for 30 days, and three freeze-thaw cycles (−80°C to room temperature). The samples were verified to be stable if the deviation of the samples was not more than ±15% of the standard concentration.

Cyp3a1 mRNA (CYP3A4) = test: qRT-PCR of mRNA expression in rat tissues after multiple-dose almonertinib; format: in vivo; conditions: rats given almonertinib for nine consecutive days, n = 3
Method: (§1) Sixty healthy rats were randomly divided into ten groups (n = 6). […] Blood samples were centrifuged at 3,500 g for 10 min, and then the supernatant was gathered and stored in a −80°C refrigerator. After, rat intestine, kidney and liver tissues were harvested for molecular analysis on the ninth or fifth day after treatment with the corresponding drugs for each group. The tissues were placed immediately at −80°C.
(§2) qRT-PCR analysis was used to determine mRNA levels of Abcb1a, Abcg2 and Cyp3a1 in the liver and intestines, and Abcb1a and Abcg2 in the kidney of rats. Total RNA was isolated from frozen liver, intestine and kidney samples using TRNzol Universal according to the manufacturer’s instructions. A Bio Tek Epoch (Bio Tek Instruments, Inc., Winooski, VT, United States) was employed to quantify the purity and concentration of the total RNA based on the ratio of the absorbance between 260 and 280 nm. RNA samples of 1 µg were transformed to complementary DNA (cDNA) using the FastKing RT Kit. The real-time PCR assays were accomplished using a two-step amplification method based on the recommendations in a SLAN-96S Real-Time PCR system (Shanghai Hongshi Medical Technology Co., Ltd. Shanghai, China). […] was used as an internal control, and the PCR cycling criteria were as follows: 95°C for 15 min, then 40 cycles of 95°C for 10, and 60°C for 32 s.

Abcg2 mRNA (BCRP) = test: as above; format: in vivo; conditions: intestine, rats given almonertinib for nine consecutive days, n = 3
Method: as §1, §2

[4] = apixaban 0.25 mg/kg with multiple doses of almonertinib (group 8) compared with group 2, rats
[5] = apixaban 0.5 mg/kg with multiple doses of almonertinib (group 7) compared with group 2, rats
[6] = plasma, 0.25 mg/kg, rats, oral apixaban 0.25 mg/kg after almonertinib 15 mg/kg for nine days (group 8), mean ± SD, n = 6
[7] = plasma, 0.5 mg/kg, rats, oral apixaban 0.5 mg/kg after almonertinib 15 mg/kg for nine days (group 7), mean ± SD, n = 6
[8] = plasma, 0.5 mg/kg, rats, oral apixaban 0.5 mg/kg alone (group 2), mean ± SD, n = 6
[9] = Freeze-thaw stability for three times, high QC (nominal 150 almonertinib, 800 apixaban, 1,500 rivaroxaban ng/mL)
[10] = Freeze-thaw stability for three times, low QC (nominal 1 almonertinib, 2 apixaban, 10 rivaroxaban ng/mL)
[11] = Freeze-thaw stability for three times, medium QC (nominal 80 almonertinib, 400 apixaban, 800 rivaroxaban ng/mL)
[12] = Room temperature for 8 h, high QC (nominal 150 almonertinib, 800 apixaban, 1,500 rivaroxaban ng/mL)
[13] = Room temperature for 8 h, low QC (nominal 1 almonertinib, 2 apixaban, 10 rivaroxaban ng/mL)
[14] = Room temperature for 8 h, medium QC (nominal 80 almonertinib, 400 apixaban, 800 rivaroxaban ng/mL)
[15] = −80°C for 30 days, high QC (nominal 150 almonertinib, 800 apixaban, 1,500 rivaroxaban ng/mL)
[16] = −80°C for 30 days, low QC (nominal 1 almonertinib, 2 apixaban, 10 rivaroxaban ng/mL)
[17] = −80°C for 30 days, medium QC (nominal 80 almonertinib, 400 apixaban, 800 rivaroxaban ng/mL)

COc1ccc(-n2nc(C(N)=O)c3c2C(=O)N(c2ccc(N4CCCCC4=O)cc2)CC3)cc1 [apixaban, Apixaban]
time of the maximal blood concentration after oral intake ([1]; (±1 h), each of two drugs, ref Steffel et al., 2021): 2 to 3 h
time to reach maximum plasma concentrations ([1]; after oral administration, ref Kubitza et al., 2005a, Kubitza et al., 2005b, Raghavan et al., 2009): 2 to 4 h
renal excretion as share of the total clearance ([1]; apixaban, ref Byon et al., 2019): approximately 27%
increase of Cmax of apixaban ([2]; apixaban 0.25 mg/kg with multiple doses of almonertinib (group 8) compared with apixaban 0.5 mg/kg alone (group 2), rats): 2.19 fold and 2.2 fold
decrease of CLz/F of apixaban [2, 4]: 5.29 fold
increase of AUC0-t of apixaban [2, 4]: 2.06 fold
increase of AUC0-∞ of apixaban [2, 4]: 2.02 fold
increase of Cmax of apixaban ([2]; apixaban 0.5 mg/kg with multiple doses of almonertinib (group 7) compared with apixaban 0.5 mg/kg alone (group 2), rats): 2.69 fold and ~3.0 fold
decrease of CLz/F of apixaban [2, 5]: 3.00 fold
increase of AUC0-t of apixaban [2, 5]: 2.87 fold
increase of AUC0-∞ of apixaban [2, 5]: 2.82 fold
increase of AUC of apixaban ([2]; dose of apixaban reduced by half, rats (discussion)): 2.1 fold
MRT inf ([2]; in vivo, 0.25 mg/kg): 2.06 ± 0.36 h
MRT last ([2]; in vivo, 0.5 mg/kg): 2.19 ± 0.13 h
AUC(0-inf) [2, 6]: 1870 ± 528 ng·h/mL
AUC(0-t) [2, 6]: 1870 ± 529 ng·h/mL
Cmax [2, 6]: 645 ± 191 ng/mL
Tmax [2, 6]: 0.79 ± 0.25 h
CL/F [2, 6]: 2.33 mL/min/kg
Vd/F [2, 6]: 0.44 ± 0.11 L/kg
half-life [2, 6]: 2.17 ± 0.15 h
MRT last ([2]; plasma, 0.25 mg/kg): 2.01 ± 0.32 h
AUC(0-inf) [2, 7]: 2370 ng·h/mL
AUC(0-t) [2, 7]: 2360 ng·h/mL
Cmax [2, 7]: 747 ± 159 ng/mL
Tmax [2, 7]: 0.63 ± 0.14 h
CL/F [2, 7]: 3.67 mL/min/kg
MRT inf [2, 7]: 2.11 ± 0.13 h
Vd/F [2, 7]: 0.58 ± 0.2 L/kg
half-life [2, 7]: 1.81 ± 0.23 h
AUC(0-inf) [2, 8]: 621 ± 168 ng·h/mL
AUC(0-t) [2, 8]: 611 ± 168 ng·h/mL
Cmax [2, 8]: 202 ± 50.9 ng/mL
Tmax [2, 8]: 0.68 ± 0.28 h
CL/F [2, 8]: 14.7 mL/min/kg
MRT inf [2, 8]: 2.42 ± 0.16 h
Vd/F [2, 8]: 3.72 ± 1.63 L/kg
half-life [2, 8]: 2.95 ± 0.96 h
MRT last ([2]; plasma, 0.5 mg/kg): 2.08 ± 0.13 h
increase of AUC of apixaban ([2]; rats (discussion, AUC not specified further)): ~3.0 fold
Stability: Accuracy (RE%) [3, 9]: 0.04%
Stability: measured concentration, Mean ± SD [3, 9]: 800.33 ± 24.72 ng/mL
Stability: Accuracy (RE%) [3, 10]: −3.42%
Stability: measured concentration, Mean ± SD [3, 10]: 1.93 ± 0.13 ng/mL
Stability: Accuracy (RE%) [3, 11]: 2.67%
Stability: measured concentration, Mean ± SD [3, 11]: 410.67 ± 12.03 ng/mL
Stability: Accuracy (RE%) [3, 12]: 0.60%
Stability: measured concentration, Mean ± SD [3, 12]: 804.83 ± 20.23 ng/mL
Stability: Accuracy (RE%) [3, 13]: 3.83%
Stability: measured concentration, Mean ± SD [3, 13]: 2.08 ± 0.07 ng/mL
Stability: Accuracy (RE%) [3, 14]: 6.08%
Stability: measured concentration, Mean ± SD [3, 14]: 424.33 ± 9.35 ng/mL
Stability: Accuracy (RE%) [3, 15]: −2.15%
Stability: measured concentration, Mean ± SD [3, 15]: 782.83 ± 22.19 ng/mL
Stability: Accuracy (RE%) [3, 16]: 0.83%
Stability: measured concentration, Mean ± SD [3, 16]: 2.02 ± 0.08 ng/mL
Stability: Accuracy (RE%) [3, 17]: 0.13%
Stability: measured concentration, Mean ± SD [3, 17]: 400.50 ± 19.99 ng/mL

C=CC(=O)Nc1cc(Nc2nccc(-c3cn(C4CC4)c4ccccc34)n2)c(OC)cc1N(C)CCN(C)C [almonertinib, Almonertinib]
inhibition of mRNA expression of Cyp3a1 (Cyp3a1 mRNA (CYP3A4); intestine): 96.9%
inhibition of mRNA expression of Cyp3a1 (Cyp3a1 mRNA (CYP3A4); liver): 45.5%
inhibition of mRNA expression of Abcg2 (Abcg2 mRNA (BCRP)): 28.0%
half-life ([1]; almonertinib, ref Yang et al., 2020): 30 to 35 h
Stability: Accuracy (RE%) [3, 9]: −2.56%
Stability: measured concentration, Mean ± SD [3, 9]: 146.17 ± 6.68 ng/mL
Stability: Accuracy (RE%) [3, 10]: 1.47%
Stability: measured concentration, Mean ± SD [3, 10]: 1.01 ± 0.09 ng/mL
Stability: Accuracy (RE%) [3, 11]: 2.13%
Stability: measured concentration, Mean ± SD [3, 11]: 81.7 ± 2.27 ng/mL
Stability: Accuracy (RE%) [3, 12]: −1.67%
Stability: measured concentration, Mean ± SD [3, 12]: 147.50 ± 9.83 ng/mL
Stability: Accuracy (RE%) [3, 13]: 0.97%
Stability: measured concentration, Mean ± SD [3, 13]: 1.01 ± 0.08 ng/mL
Stability: Accuracy (RE%) [3, 14]: 0.60%
Stability: measured concentration, Mean ± SD [3, 14]: 80.48 ± 6.42 ng/mL
Stability: Accuracy (RE%) [3, 15]: −2.22%
Stability: measured concentration, Mean ± SD [3, 15]: 146.67 ± 10.63 ng/mL
Stability: Accuracy (RE%) [3, 16]: 2.33%
Stability: measured concentration, Mean ± SD [3, 16]: 1.02 ± 0.10 ng/mL
Stability: Accuracy (RE%) [3, 17]: 0.65%
Stability: measured concentration, Mean ± SD [3, 17]: 80.52 ± 3.47 ng/mL
